Test results published in US20110053949A1, “4-[3-(ARYLOXY)BENZYLIDENE]-3-METHYL PIPERIDINE ARYL CARBOXAMIDE COMPOUNDS USEFUL AS FAAH INHIBITORS” (PFIZER INC., priority 2008, published 2011).

Each compound was assayed against T1, rFAAH (Rattus norvegicus, UniProt P97612) (assay: FAAH_KINACTR rFAAH kobs/I). Details: further data table, substances given by IUPAC name only.
T1 sequence (P97612 1-579): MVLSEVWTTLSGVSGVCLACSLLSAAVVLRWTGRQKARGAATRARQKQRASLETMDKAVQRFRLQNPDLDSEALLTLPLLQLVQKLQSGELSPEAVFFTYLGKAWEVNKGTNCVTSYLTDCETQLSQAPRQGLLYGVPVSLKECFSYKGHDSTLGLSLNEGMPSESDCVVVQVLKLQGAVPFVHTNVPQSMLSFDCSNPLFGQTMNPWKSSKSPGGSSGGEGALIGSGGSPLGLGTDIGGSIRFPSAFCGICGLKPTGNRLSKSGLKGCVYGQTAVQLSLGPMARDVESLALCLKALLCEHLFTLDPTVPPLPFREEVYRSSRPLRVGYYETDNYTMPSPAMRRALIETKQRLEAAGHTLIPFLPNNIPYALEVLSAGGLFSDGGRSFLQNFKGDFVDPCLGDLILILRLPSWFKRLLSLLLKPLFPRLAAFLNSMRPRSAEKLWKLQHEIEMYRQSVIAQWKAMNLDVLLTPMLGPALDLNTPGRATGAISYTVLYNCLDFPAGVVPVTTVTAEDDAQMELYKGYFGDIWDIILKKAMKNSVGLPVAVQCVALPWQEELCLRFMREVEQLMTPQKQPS
Type: biochemical

Row | FAAH_KINACTR:rFAAH:kobs/I | Compound
1 | 3730 | CC1CN(C(=O)Nc2cccnn2)CC/C1=C\c1cccc(Oc2ccc(C(F)(F)F)cn2)c1 (stereo not drawn) [(4E)-3-methyl-N-pyridazin-3-yl-4-(3-{[5-(trifluoromethyl)pyridin-2-yl]oxy}benzylidene)piperidine-1-carboxamide]

The compounds below were run against T2, Human FAAH (Homo sapiens, UniProt O00519) (assay: FAAH enzyme assay (glutamate dehydrogenase coupled, oleamide substrate), irreversible inhibition kinetics). Details: human FAAH, 30° C., pH 7.4.
T2 construct: made in house
T2 sequence (O00519 1-579): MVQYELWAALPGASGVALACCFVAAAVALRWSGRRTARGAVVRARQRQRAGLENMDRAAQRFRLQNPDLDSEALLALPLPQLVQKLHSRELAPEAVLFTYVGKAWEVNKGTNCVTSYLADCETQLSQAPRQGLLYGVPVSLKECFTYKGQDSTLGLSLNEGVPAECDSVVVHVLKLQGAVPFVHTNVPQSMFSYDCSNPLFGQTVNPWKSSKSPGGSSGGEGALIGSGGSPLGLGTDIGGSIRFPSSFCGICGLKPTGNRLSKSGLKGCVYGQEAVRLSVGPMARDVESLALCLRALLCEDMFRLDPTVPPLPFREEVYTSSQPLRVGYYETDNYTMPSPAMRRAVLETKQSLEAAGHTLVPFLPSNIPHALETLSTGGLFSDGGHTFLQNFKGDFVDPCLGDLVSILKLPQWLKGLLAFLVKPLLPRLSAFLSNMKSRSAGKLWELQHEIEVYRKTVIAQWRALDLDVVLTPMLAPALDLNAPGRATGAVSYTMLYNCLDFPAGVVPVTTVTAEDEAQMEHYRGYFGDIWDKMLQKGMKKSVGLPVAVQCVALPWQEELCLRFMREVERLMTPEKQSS
Type: biochemical
Description: A FAAH enzyme assay may be carried out as described in WO2006/085196 in 384-well clear polystyrene plates in a total volume of 50 μl per well. All percents are by volume. To each well was placed the reaction mixture (40 μl) containing 1-4 nM FAAH, 50 mM NaPi, pH 7.4, 3 mM α-ketoglutarate, 0.15 mM NADH, 7.5 U/ml glutamate dehydrogenase, 2 mM ADP, 1 mM EDTA, and 0.1% Triton X-100 (The concentration shown for each component is the final concentration in the assay). To this mixture was added 5 μl of a compound of Examples 1 to 20 at various concentrations prepared in 50% DMSO (or 5 μl 50% DMSO for controls). This was immediately followed by the addition of 5 μl oleamide (500 μM) dissolved in 75% EtOH/25% DMSO and the reaction mixture is mixed for 1.5 min. The final concentrations of DMSO and EtOH in the assay were each 7.5%. The reactions was then incubated at 30° C. and the absorbance at 340 nm was collected over a period of 90 min with readings taken in 30-second intervals using SpectraMax Plus^384 Microplate Spectrophotometer (Molecular Devices, Sunnyvale, Calif.). Human FAAH used in the assay was prepared as described in the patent application WO 2006/067613. The purity of the enzyme used was greater than 98% based on an analysis by SDS-polyacrylamide gel electrophoresis followed by Coomassie Blue staining.
Initial velocity data (V) is obtained from the slopes of the initial progressive curves. They are plotted as a function of substrate concentration and fit to the Michaelis-Menten equation (1) using Prism (GraphPad Software, Inc., San Diego, Calif.) software to obtain Km and Vmax values.
To obtain potencies of irreversible inhibitors, progressive curves consistent with first order inhibition kinetics (two-step irreversible inhibition mechanism) are fit to equation (2) by nonlinear least squares regressions to determine kobs values at each inhibitor concentration, where [P]t is the absorbance at time t, V0 is a constant related to the steady state rate of the uninhibited reaction, and kobs is the first order rate constant for enzyme inactivation. The inhibitor dissociation constant (Ki) and the first order rate
(2) constant of enzyme inactivation at infinite inhibitor concentration (kinact) are then obtained by fitting the kobs vs. [I] curves to equation (3).

Row | hFAAH Kinact/Ki | Compound
2 | 4590 M⁻¹ s⁻¹ | CC1CN(C(=O)Nc2cccnn2)CC/C1=C\c1cccc(Oc2ccc(C(F)(F)F)cn2)c1 (single isomer, unassigned) [Example 1, (4E)-3-methyl-N-pyridazin-3-yl-4-(3-{[5-(trifluoromethyl)pyridin-2-yl]oxy}benzylidene)piperidine-1-carboxamide]
3 | 254 M⁻¹ s⁻¹ | CC1CN(C(=O)Nc2cccnn2)CC/C1=C\c1cccc(Oc2ccc(C(F)(F)F)cn2)c1 (single isomer, unassigned) [Example 2, (4E)-3-methyl-N-pyridazin-3-yl-4-(3-{[5-(trifluoromethyl)pyridin-2-yl]oxy}benzylidene)piperidine-1-carboxamide]
4 | 4890 M⁻¹ s⁻¹ | CC1CN(C(=O)Nc2cccnc2)CC/C1=C\c1cccc(Oc2ccc(C(F)(F)F)cn2)c1 (single isomer, unassigned) [Example 3, (4E)-3-methyl-N-pyridin-3-yl-4-(3-{[5-(trifluoromethyl)pyridin-2-yl]oxy}benzylidene)piperidine-1-carboxamide]
5 | 71.4 M⁻¹ s⁻¹ | CC1CN(C(=O)Nc2cccnc2)CC/C1=C\c1cccc(Oc2ccc(C(F)(F)F)cn2)c1 (single isomer, unassigned) [Example 4, (4E)-3-methyl-N-pyridin-3-yl-4-(3-{[5-(trifluoromethyl)pyridin-2-yl]oxy}benzylidene)piperidine-1-carboxamide]
6 | 6930 M⁻¹ s⁻¹ | CC1CN(C(=O)Nc2cccnc2)CC/C1=C\c1cccc(Oc2ncc(C(F)(F)F)cn2)c1 (single isomer, unassigned) [Example 16, (4E)-3-methyl-N-pyridin-3-yl-4-(3-{[5-(trifluoromethyl)pyrimidin-2-yl]oxy}benzylidene)piperidine-1-carboxamide]
7 | <15.5 M⁻¹ s⁻¹ | CC1CN(C(=O)Nc2cccnc2)CC/C1=C\c1cccc(Oc2ncc(C(F)(F)F)cn2)c1 (single isomer, unassigned) [Example 17, (4E)-3-methyl-N-pyridin-3-yl-4-(3-{[5-(trifluoromethyl)pyrimidin-2-yl]oxy}benzylidene)piperidine-1-carboxamide]

Row | Compound | hFAAH Kinact/Ki
8 | (4E)-N-1,2-benzisoxazol-3-yl-3-methyl-4-(3-{[5-(trifluoromethyl)pyridin-2-yl]oxy}benzylidene)piperidine-1-carboxamide [Example 13] | 733 M⁻¹ s⁻¹
9 | (4E)-N-(6-methoxypyridazin-3-yl)-3-methyl-4-(3-{[5-(trifluoromethyl)pyridin-2-yl]oxy}benzylidene)piperidine-1-carboxamide [Example 12] | 2500 M⁻¹ s⁻¹

Same assay, conditions: pH 7.4, human FAAH, 30° C., read-out: hFAAH Kinact/Ki

Row | kinact/KI | Compound
10 | 747 M⁻¹ s⁻¹ | CC1CN(C(=O)Nc2cccnc2)CC/C1=C\c1cccc(Oc2ccc(Br)cn2)c1 (racemic) [Example 14, (4E)-4-{3-[(5-bromopyridin-2-yl)oxy]benzylidene}-3-methyl-N-pyridin-3-ylpiperidine-1-carboxamide]
11 | 4170 M⁻¹ s⁻¹ | CC1CN(C(=O)Nc2cccnc2)CC/C1=C\c1cccc(Oc2ccc(Cl)cn2)c1 (racemic) [Example 15, (4E)-4-{3-[(5-chloropyridin-2-yl)oxy]benzylidene}-3-methyl-N-pyridin-3-ylpiperidine-1-carboxamide]
12 | 2850 M⁻¹ s⁻¹ | COc1ccc(NC(=O)N2CC/C(=C\c3cccc(Oc4ccc(C(F)(F)F)cn4)c3)C(C)C2)cn1 (single isomer, unassigned) [Example 5, (4E)-N-(6-methoxypyridin-3-yl)-3-methyl-4-(3-{[5-(trifluoromethyl)pyridin-2-yl]oxy}benzylidene)piperidine-1-carboxamide]
13 | 1420 M⁻¹ s⁻¹ | CC1CN(C(=O)Nc2cnc3[nH]ccc3c2)CC/C1=C\c1cccc(Oc2ccc(C(F)(F)F)cn2)c1 (single isomer, unassigned) [Example 6, (4E)-3-methyl-N-1H-pyrrolo[2,3-b]pyridin-5-yl-4-(3-{[5-(trifluoromethyl)pyridin-2-yl]oxy}benzylidene)piperidine-1-carboxamide]
14 | 1290 M⁻¹ s⁻¹ | Cc1cncc(NC(=O)N2CC/C(=C\c3cccc(Oc4ccc(C(F)(F)F)cn4)c3)C(C)C2)c1 (single isomer, unassigned) [Example 7, (4E)-3-methyl-N-(5-methylpyridin-3-yl)-4-(3-{[5-(trifluoromethyl)pyridin-2-yl]oxy}benzylidene)piperidine-1-carboxamide]
15 | 2460 M⁻¹ s⁻¹ | CC1CN(C(=O)Nc2ccc(C#N)nc2)CC/C1=C\c1cccc(Oc2ccc(C(F)(F)F)cn2)c1 (single isomer, unassigned) [Example 8, (4E)-N-(6-cyanopyridin-3-yl)-3-methyl-4-(3-{[5-(trifluoromethyl)pyridin-2-yl]oxy}benzylidene)piperidine-1-carboxamide]
16 | 2390 M⁻¹ s⁻¹ | COc1cnc(NC(=O)N2CC/C(=C\c3cccc(Oc4ccc(C(F)(F)F)cn4)c3)C(C)C2)cn1 (single isomer, unassigned) [Example 9, (4E)-N-(5-methoxypyrazin-2-yl)-3-methyl-4-(3-{[5-(trifluoromethyl)pyridin-2-yl]oxy}benzylidene)piperidine-1-carboxamide]
17 | 3390 M⁻¹ s⁻¹ | Cc1cnc(NC(=O)N2CC/C(=C\c3cccc(Oc4ccc(C(F)(F)F)cn4)c3)C(C)C2)cn1 (single isomer, unassigned) [Example 10, (4E)-3-methyl-N-(5-methylpyrazin-2-yl)-4-(3-{[5-(trifluoromethyl)pyridin-2-yl]oxy}benzylidene)piperidine-1-carboxamide]
18 | 1880 M⁻¹ s⁻¹ | COc1cncc(NC(=O)N2CC/C(=C\c3cccc(Oc4ccc(C(F)(F)F)cn4)c3)C(C)C2)n1 (single isomer, unassigned) [Example 11, (4E)-N-(6-methoxypyrazin-2-yl)-3-methyl-4-(3-{[5-(trifluoromethyl)pyridin-2-yl]oxy}benzylidene)piperidine-1-carboxamide]
